Laboratory results published in patent US11965039B2, “Compstatin analogues and their medical uses” (priority 2018, dated 2024).
Read-outs that look alike come from different tables or passages of the source. Starred links: 1 amine or outer side, 2 acyl side, 3 side chain; linkers in the order of their positions; H or OH if unused. Positions of bridges follow the written chain, without caps; N, C: chain ends. Non-standard residues stand in square brackets, D forms with d. Residues, ends and D or L forms follow the SMILES beside them. Groups on a side chain read outwards from the residue. *: point of attachment. Trp(1-Me) = Cn1cc(C[C@H](N)C(=O)O)c2ccccc21; C18 diacid = O=C(O)CCCCCCCCCCCCCCCCC(=O)*; C16 diacid = O=C(O)CCCCCCCCCCCCCCC(=O)*; γGlu = O=C(O)[C@H](CCC(=O)[*:2])N[*:1]; Sar = CNCC(=O)O

Test system: classical complement pathway
Experiment: In vitro haemolysis assay (inhibition of classical complement pathway)
Format: cell-based, human
Summary of the method: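 Compound dilutions preincubated 15 min at room temperature with diluted human serum (titrated per batch for 70-90% maximal haemolysis), then antibody-sensitized sheep RBC (10^7/well) added for 30 min at 37 °C in Tris/casein buffer, pH 7.4. Stopped with EDTA; haemolysis read at 405 nm; IC50 by 4PL fit.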

[1] = human serum, sensitized sheep red blood cells, Table 3, given as upper bounds, read-out: IC50, inhibition of hemolysis
[2] = human serum, sensitized sheep red blood cells, Table 4, valine 3 vs isoleucine 3 pairs, read-out: CP hemolysis IC50

SMILES	IC50 [1] [µM]	IC50 [2] [µM]	further results
CC[C@H](C)[C@H](NC(C)=O)C(=O)N[C@H]1CSSC[C@@H](C(=O)N[C@H](C(N)=O)[C@@H](C)O)NC(=O)[C@H](CO)NC(=O)[C@H](Cc2c[nH]cn2)NC(=O)[C@H](C)NC(=O)CNC(=O)[C@H](Cc2c[nH]c3ccccc23)NC(=O)[C@H](CC(=O)O)NC(=O)[C@H](CCC(N)=O)NC(=O)[C@H](Cc2c[nH]c3ccccc23)NC(=O)[C@H]([C@@H](C)CC)NC1=O [Compound 19] (Ac-ICIWQDWGAHSCT-NH2; disulfide 2-12)	< 0.25	0.14	
CC[C@H](C)[C@H](NC(=O)[C@H](C)NC(=O)[C@H](CO)NC(=O)CNC(=O)[C@H](CCC(=O)O)NC(C)=O)C(=O)N[C@H]1CSSC[C@@H](C(=O)N(C)CC(=O)N[C@@H](CCC(=O)O)C(N)=O)NC(=O)[C@H](CCCNC(=N)N)NC(=O)[C@H](Cc2c[nH]cn2)NC(=O)[C@H](CCC(=O)O)NC(=O)CNC(=O)[C@H](Cc2c[nH]c3ccccc23)NC(=O)[C@H](CC(=O)O)NC(=O)[C@H](CCC(N)=O)NC(=O)[C@H](Cc2c[nH]c3ccccc23)NC(=O)[C@H](C(C)C)NC1=O [H, reference compound] (Ac-EGSAICVWQDWGEHRC[Sar]E-NH2; disulfide 6-16)		0.33	
CC[C@H](C)[C@H](NC(C)=O)C(=O)N[C@H]1CSSC[C@@H](C(=O)N[C@H](C(N)=O)[C@@H](C)O)NC(=O)[C@H](CO)NC(=O)[C@H](Cc2c[nH]cn2)NC(=O)[C@H](CCC(=O)O)NC(=O)CNC(=O)[C@H](Cc2c[nH]c3ccccc23)NC(=O)[C@H](CC(=O)O)NC(=O)[C@H](CCC(N)=O)NC(=O)[C@H](Cc2c[nH]c3ccccc23)NC(=O)[C@H]([C@@H](C)CC)NC1=O [Compound 20] (Ac-ICIWQDWGEHSCT-NH2; disulfide 2-12)	< 0.1	0.059	
CC[C@H](C)[C@H](NC(C)=O)C(=O)N[C@H]1CSSC[C@@H](C(=O)N[C@H](C(N)=O)[C@@H](C)O)NC(=O)[C@H](CCCNC(=N)N)NC(=O)[C@H](Cc2c[nH]cn2)NC(=O)[C@H](CCC(=O)O)NC(=O)CNC(=O)[C@H](Cc2c[nH]c3ccccc23)NC(=O)[C@H](CCC(=O)O)NC(=O)[C@H](CCC(N)=O)NC(=O)[C@H](Cc2c[nH]c3ccccc23)NC(=O)[C@H]([C@@H](C)CC)NC1=O [Compound 16] (Ac-ICIWQEWGEHRCT-NH2; disulfide 2-12)	< 0.1		
CC[C@H](C)[C@@H]1NC(=O)[C@@H](NC(=O)[C@H](Cc2ccc(O)cc2)NC(=O)[C@H](C)NC(=O)[C@H](CO)NC(=O)[C@H](CO)NC(=O)[C@H](CCC(=O)O)NC(C)=O)CSSC[C@@H](C(=O)N[C@H](C(N)=O)[C@@H](C)O)NC(=O)[C@H](CCCNC(=N)N)NC(=O)[C@H](Cc2c[nH]cn2)NC(=O)[C@H](CCC(=O)O)NC(=O)CNC(=O)[C@H](Cc2c[nH]c3ccccc23)NC(=O)[C@H](CC(=O)O)NC(=O)[C@H](CCC(N)=O)NC(=O)[C@H](Cc2c[nH]c3ccccc23)NC1=O [Compound 10] (Ac-ESSAYCIWQDWGEHRCT-NH2; disulfide 6-16)	< 0.1		
CC[C@H](C)[C@H](NC(=O)[C@H](C)NC(=O)[C@H](CO)NC(=O)CNC(=O)[C@H](CCC(=O)O)NC(C)=O)C(=O)N[C@H]1CSSC[C@@H](C(=O)N[C@H](C(N)=O)[C@@H](C)O)NC(=O)[C@H](CCCNC(=N)N)NC(=O)[C@H](Cc2c[nH]cn2)NC(=O)[C@H](CCC(=O)O)NC(=O)CNC(=O)[C@H](Cc2c[nH]c3ccccc23)NC(=O)[C@H](CC(=O)O)NC(=O)[C@H](CCC(N)=O)NC(=O)[C@H](Cc2c[nH]c3ccccc23)NC(=O)[C@H]([C@@H](C)CC)NC1=O [Compound 29] (Ac-EGSAICIWQDWGEHRCT-NH2; disulfide 6-16)	< 0.1		
CC[C@H](C)[C@@H]1NC(=O)[C@@H](NC(=O)[C@H](Cc2ccccc2)NC(=O)[C@H](CCC(=O)O)NC(=O)[C@H](CO)NC(C)=O)CSSC[C@@H](C(=O)N(C)CC(=O)N[C@@H](CCC(=O)O)C(=O)NCC(=O)N[C@@H](CCC(=O)O)C(=O)NCC(=O)NCC(=O)NCC(=O)N[C@@H](CCCCNC(=O)CC[C@H](NC(=O)CNC(=O)CC[C@H](NC(=O)CCCCCCCCCCCCCCCCC(=O)O)C(=O)O)C(=O)O)C(N)=O)NC(=O)[C@H](CCCNC(=N)N)NC(=O)[C@H](Cc2c[nH]cn2)NC(=O)[C@H](CCC(=O)O)NC(=O)CNC(=O)[C@H](Cc2c[nH]c3ccccc23)NC(=O)[C@H](CC(=O)O)NC(=O)[C@H](CCC(N)=O)NC(=O)[C@H](Cc2cn(C)c3ccccc23)NC1=O [Compound 129] (Ac-SEFCI[Trp(1-Me)]QDWGEHRC[Sar]EGEGGGK([γGlu-Gly-γGlu-C18 diacid])-NH2; disulfide 4-14)	< 0.1		
CC[C@H](C)[C@H](NC(C)=O)C(=O)N[C@H]1CSSC[C@@H](C(=O)N[C@H](C(N)=O)[C@@H](C)O)NC(=O)[C@H](CCCNC(=N)N)NC(=O)[C@H](Cc2c[nH]cn2)NC(=O)[C@H](CC(=O)O)NC(=O)CNC(=O)[C@H](Cc2c[nH]c3ccccc23)NC(=O)[C@H](CC(=O)O)NC(=O)[C@H](CCC(N)=O)NC(=O)[C@H](Cc2c[nH]c3ccccc23)NC(=O)[C@H]([C@@H](C)CC)NC1=O [Compound 17] (Ac-ICIWQDWGDHRCT-NH2; disulfide 2-12)	< 0.1		
CC[C@H](C)[C@@H]1NC(=O)[C@@H](NC(=O)CN(C)C(C)=O)CSSC[C@@H](C(=O)N[C@H](C(N)=O)[C@@H](C)O)NC(=O)[C@H](CCCNC(=N)N)NC(=O)[C@H](Cc2c[nH]cn2)NC(=O)[C@H](CCC(=O)O)NC(=O)CNC(=O)[C@H](Cc2c[nH]c3ccccc23)NC(=O)[C@H](CC(=O)O)NC(=O)[C@H](CCC(N)=O)NC(=O)[C@H](Cc2c[nH]c3ccccc23)NC1=O [Compound 11] (Ac-[Sar]CIWQDWGEHRCT-NH2; disulfide 2-12)	< 0.1		
CC[C@H](C)[C@@H]1NC(=O)[C@@H](NC(=O)[C@@H](NC(=O)[C@H](CCC(=O)O)NC(C)=O)[C@@H](C)CC)CSSC[C@@H](C(=O)N[C@H](C(=O)N[C@@H](CCC(=O)O)C(=O)NCC(=O)N[C@@H](CCC(=O)O)C(N)=O)[C@@H](C)O)NC(=O)[C@H](CCCNC(=N)N)NC(=O)[C@H](Cc2c[nH]cn2)NC(=O)[C@H](CCC(=O)O)NC(=O)CNC(=O)[C@H](Cc2c[nH]c3ccccc23)NC(=O)[C@H](CC(=O)O)NC(=O)[C@H](CCC(N)=O)NC(=O)[C@H](Cc2c[nH]c3ccccc23)NC1=O [Compound 34] (Ac-EICIWQDWGEHRCTEGE-NH2; disulfide 3-13)	< 0.25		
CC[C@H](C)[C@H](NC(C)=O)C(=O)N[C@H]1CSSC[C@@H](C(=O)N[C@H](C(N)=O)[C@@H](C)O)NC(=O)[C@H](CCCNC(=N)N)NC(=O)[C@H](Cc2c[nH]cn2)NC(=O)[C@H](CO)NC(=O)CNC(=O)[C@H](Cc2c[nH]c3ccccc23)NC(=O)[C@H](CC(=O)O)NC(=O)[C@H](CCC(N)=O)NC(=O)[C@H](Cc2c[nH]c3ccccc23)NC(=O)[C@H](C(C)C)NC1=O [B, reference compound] (Ac-ICVWQDWGSHRCT-NH2; disulfide 2-12)		0.36	
CC[C@H](C)[C@H](NC(C)=O)C(=O)N[C@H]1CSSC[C@@H](C(=O)N[C@H](C(N)=O)[C@@H](C)O)NC(=O)[C@H](CCCNC(=N)N)NC(=O)[C@H](Cc2c[nH]cn2)NC(=O)[C@H](CCC(=O)O)NC(=O)CNC(=O)[C@H](Cc2c[nH]c3ccccc23)NC(=O)[C@H](CC(=O)O)NC(=O)[C@H](CCC(N)=O)NC(=O)[C@H](Cc2c[nH]c3ccccc23)NC(=O)[C@H]([C@@H](C)CC)NC1=O [Compound 2] (Ac-ICIWQDWGEHRCT-NH2; disulfide 2-12)	< 0.1	0.094	IC50 (Table 5, different residues at position 3 of Ac-IC(1)XWQDWGEHRC(1)T-NH2, read-out: IC50, CP hemolysis): < 0.1 µM
CC[C@H](C)[C@H](NC(C)=O)C(=O)N[C@H]1CSSC[C@@H](C(=O)N[C@H](C(=O)NCC(=O)N[C@@H](C)C(=O)N[C@@H](CCC(=O)O)C(=O)N[C@@H](CO)C(N)=O)[C@@H](C)O)NC(=O)[C@H](CCCNC(=N)N)NC(=O)[C@H](Cc2c[nH]cn2)NC(=O)[C@H](CCC(=O)O)NC(=O)CNC(=O)[C@H](Cc2c[nH]c3ccccc23)NC(=O)[C@H](CC(=O)O)NC(=O)[C@H](CCC(N)=O)NC(=O)[C@H](Cc2c[nH]c3ccccc23)NC(=O)[C@H](C(C)C)NC1=O [D, reference compound] (Ac-ICVWQDWGEHRCTGAES-NH2; disulfide 2-12)		0.21	
CC[C@H](C)[C@H](NC(C)=O)C(=O)N[C@H]1CSSC[C@@H](C(=O)N[C@H](C(=O)N[C@@H](CCC(=O)O)C(=O)NCC(=O)N[C@@H](CCCCNC(=O)CC[C@H](NC(=O)CCCCCCCCCCCCCCC(=O)O)C(=O)O)C(N)=O)[C@@H](C)O)NC(=O)[C@H](CCCNC(=N)N)NC(=O)[C@H](Cc2c[nH]cn2)NC(=O)[C@H](CCC(=O)O)NC(=O)CNC(=O)[C@H](Cc2c[nH]c3ccccc23)NC(=O)[C@H](CC(=O)O)NC(=O)[C@H](CCC(N)=O)NC(=O)[C@H](Cc2c[nH]c3ccccc23)NC(=O)[C@H]([C@@H](C)CC)NC1=O [Compound 92] (Ac-ICIWQDWGEHRCTEGK([γGlu-C16 diacid])-NH2; disulfide 2-12)	< 1		
CC[C@H](C)[C@@H]1NC(=O)[C@@H](NC(=O)[C@H](Cc2ccccc2)NC(=O)[C@H](CCC(=O)O)NC(=O)[C@H](CO)NC(C)=O)CSSC[C@@H](C(=O)N[C@@H](CO)C(=O)N[C@@H](CCC(=O)O)C(=O)N[C@@H](C)C(N)=O)NC(=O)[C@H](CCCNC(=N)N)NC(=O)[C@H](Cc2c[nH]cn2)NC(=O)[C@H](CCC(=O)O)NC(=O)CNC(=O)[C@H](Cc2c[nH]c3ccccc23)NC(=O)[C@H](CC(=O)O)NC(=O)[C@H](CCC(N)=O)NC(=O)[C@H](Cc2cn(C)c3ccccc23)NC1=O [Compound 84] (Ac-SEFCI[Trp(1-Me)]QDWGEHRCSEA-NH2; disulfide 4-14)			IC50 (read-out: IC50, inhibition of hemolysis): < 0.1 µM
CC[C@H](C)[C@@H]1NC(=O)[C@@H](NC(=O)CN(C)C(=O)[C@H](CCC(=O)O)NC(=O)[C@H](CO)NC(C)=O)CSSC[C@@H](C(=O)N(C)CC(=O)N[C@@H](CCC(=O)O)C(=O)N[C@@H](C)C(N)=O)NC(=O)[C@H](CCCNC(=N)N)NC(=O)[C@H](Cc2c[nH]cn2)NC(=O)[C@H](CCC(=O)O)NC(=O)CNC(=O)[C@H](Cc2c[nH]c3ccccc23)NC(=O)[C@H](CCC(=O)O)NC(=O)[C@H](CCC(N)=O)NC(=O)[C@H](Cc2cn(C)c3ccccc23)NC1=O [Compound 90] (Ac-SE[Sar]CI[Trp(1-Me)]QEWGEHRC[Sar]EA-NH2; disulfide 4-14)	< 0.25		
